Measured values reported in the NIST ThermoML archive (doi:10.1016/j.jct.2019.04.023).
± gives the expanded uncertainty stated by the source.

Key:
[1] = 101 kPa, Liquid; for viscosity: Falling or rolling sphere viscometry; for mass density: Vibrating tube method
[2] = xn = mol fraction of the nth substance listed; details: 101 kPa, Liquid, x2 = 0; for viscosity: Falling or rolling sphere viscometry; for mass density: Vibrating tube method

Compound `CO` [methanol] has a viscosity ([1]; 293.15 K) of 0.584 ± 0.024 mPa·s, a mass density ([1]; 293.15 K) of 791.3 ± 1.6 kg/m3 and a viscosity ([1]; 298.15 K) of 0.552 ± 0.022 mPa·s. For the same compound, the mass density ([1]; 298.15 K) was 786.6 ± 1.6 kg/m3, the viscosity ([1]; 303.15 K) was 0.524 ± 0.021 mPa·s and the mass density ([1]; 303.15 K) was 781.87 ± 1.6 kg/m3. For the same compound, the viscosity ([1]; 308.15 K) was 0.49 ± 0.02 mPa·s, the mass density ([1]; 308.15 K) was 777.12 ± 1.6 kg/m3 and the viscosity ([1]; 313.15 K) was 0.459 ± 0.019 mPa·s. It also gave a mass density ([1]; 313.15 K) of 772.34 ± 1.6 kg/m3, a viscosity ([1]; 318.15 K) of 0.439 ± 0.018 mPa·s and a mass density ([1]; 318.15 K) of 767.52 ± 1.5 kg/m3. For the same compound, the viscosity ([1]; 323.15 K) was 0.417 ± 0.017 mPa·s and the mass density ([1]; 323.15 K) was 762.67 ± 1.5 kg/m3.

Compound `CO` [methanol] + CC[N+](CC)=C(N(C)C)N(C)C.O=S(=O)([N-]S(=O)(=O)C(F)(F)F)C(F)(F)F has a viscosity ([2]; 293.15 K) of 0.584 ± 0.024 mPa·s, a mass density ([2]; 293.15 K) of 791.3 ± 1.6 kg/m3 and a viscosity ([2]; 298.15 K) of 0.552 ± 0.022 mPa·s. The mass density ([2]; 298.15 K) was 786.6 ± 1.6 kg/m3, the viscosity ([2]; 303.15 K) was 0.524 ± 0.021 mPa·s and the mass density ([2]; 303.15 K) was 781.87 ± 1.6 kg/m3. For the same compound, the viscosity ([2]; 308.15 K) was 0.49 ± 0.02 mPa·s, the mass density ([2]; 308.15 K) was 777.12 ± 1.6 kg/m3 and the viscosity ([2]; 313.15 K) was 0.459 ± 0.019 mPa·s. For the same compound, the mass density ([2]; 313.15 K) was 772.34 ± 1.6 kg/m3, the viscosity ([2]; 318.15 K) was 0.439 ± 0.018 mPa·s and the mass density ([2]; 318.15 K) was 767.52 ± 1.5 kg/m3. The viscosity ([2]; 323.15 K) was 0.417 ± 0.017 mPa·s and the mass density ([2]; 323.15 K) was 762.67 ± 1.5 kg/m3.

In the case of `CCO` [ethanol], the viscosity ([1]; 293.15 K) is reported as 1.177 ± 0.048 mPa·s, the mass density ([1]; 293.15 K) is reported as 789.53 ± 1.6 kg/m3 and the viscosity ([1]; 298.15 K) is reported as 1.074 ± 0.044 mPa·s. The mass density ([1]; 298.15 K) was 785.25 ± 1.6 kg/m3, the viscosity ([1]; 303.15 K) was 0.977 ± 0.04 mPa·s and the mass density ([1]; 303.15 K) was 780.93 ± 1.6 kg/m3. It also gave a viscosity ([1]; 308.15 K) of 0.888 ± 0.036 mPa·s, a mass density ([1]; 308.15 K) of 776.58 ± 1.6 kg/m3 and a viscosity ([1]; 313.15 K) of 0.819 ± 0.033 mPa·s. The mass density ([1]; 313.15 K) was 772.19 ± 1.6 kg/m3, the viscosity ([1]; 318.15 K) was 0.753 ± 0.031 mPa·s and the mass density ([1]; 318.15 K) was 767.75 ± 1.5 kg/m3. The viscosity ([1]; 323.15 K) was 0.697 ± 0.028 mPa·s and the mass density ([1]; 323.15 K) was 763.27 ± 1.5 kg/m3.

With `CC[N+](CC)=C(N(C)C)N(C)C.O=S(=O)([N-]S(=O)(=O)C(F)(F)F)C(F)(F)F` the viscosity ([1]; 293.15 K) was 81.02 ± 3.5 mPa·s, the mass density ([1]; 293.15 K) was 1377.86 ± 2.8 kg/m3 and the viscosity ([1]; 298.15 K) was 65.01 ± 2.7 mPa·s. It also gave a mass density ([1]; 298.15 K) of 1373.16 ± 2.8 kg/m3, a viscosity ([1]; 303.15 K) of 52.96 ± 2.1 mPa·s and a mass density ([1]; 303.15 K) of 1368.51 ± 2.8 kg/m3. For the same compound, the viscosity ([1]; 308.15 K) was 43.84 ± 1.8 mPa·s, the mass density ([1]; 308.15 K) was 1363.9 ± 2.8 kg/m3 and the viscosity ([1]; 313.15 K) was 36.79 ± 1.5 mPa·s. For the same compound, the mass density ([1]; 313.15 K) was 1359.32 ± 2.8 kg/m3, the viscosity ([1]; 318.15 K) was 31.25 ± 1.3 mPa·s and the mass density ([1]; 318.15 K) was 1354.76 ± 2.8 kg/m3. It also gave a viscosity ([1]; 323.15 K) of 26.79 ± 1.1 mPa·s and a mass density ([1]; 323.15 K) of 1350.21 ± 2.7 kg/m3.

Compound `CCO` [ethanol] + CC[N+](CC)=C(N(C)C)N(C)C.O=S(=O)([N-]S(=O)(=O)C(F)(F)F)C(F)(F)F has a viscosity ([2]; 293.15 K) of 1.177 ± 0.048 mPa·s, a mass density ([2]; 293.15 K) of 789.53 ± 1.6 kg/m3 and a viscosity ([2]; 298.15 K) of 1.074 ± 0.044 mPa·s. It also gave a mass density ([2]; 298.15 K) of 785.25 ± 1.6 kg/m3, a viscosity ([2]; 303.15 K) of 0.977 ± 0.04 mPa·s and a mass density ([2]; 303.15 K) of 780.93 ± 1.6 kg/m3. The viscosity ([2]; 308.15 K) was 0.888 ± 0.036 mPa·s, the mass density ([2]; 308.15 K) was 776.58 ± 1.6 kg/m3 and the viscosity ([2]; 313.15 K) was 0.819 ± 0.033 mPa·s. The mass density ([2]; 313.15 K) was 772.19 ± 1.6 kg/m3, the viscosity ([2]; 318.15 K) was 0.753 ± 0.031 mPa·s and the mass density ([2]; 318.15 K) was 767.75 ± 1.5 kg/m3. It also gave a viscosity ([2]; 323.15 K) of 0.697 ± 0.028 mPa·s and a mass density ([2]; 323.15 K) of 763.27 ± 1.5 kg/m3.
